Laboratory results as given in patent publication US20240376094A2, “SELECTIVE BCL-XL PROTAC COMPOUNDS AND METHODS OF USE” (Les Laboratoires Servier, priority 2021, published 2024).

What was measured:
Format in all cases: cell-based
MOLT-4 cells = assay: MOLT-4 cell viability, CTG assay; settings: Homo sapiens, MOLT-4, 48 h
Outline: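 Viability read as total ATP luminescence (CTG) after 48 h compound treatment, 11 points at 5-fold spacing in triplicate, cells in RPMI 1640/10% FBS. IC50 is the concentration halving signal relative to control, four-parameter fit, averaged over at least 2 experiments.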

Bcl-xL = target: T1, Bcl-xL (Homo sapiens, UniProt Q07817); assay: HCT116 Bcl-xL degradation, capillary-based immunoassay (WES); settings: HCT116, 24 h, 9-point serial dilution
T1 construct: Measured levels of Bcl-xL protein of HCT116 cells treated with the tested compounds; host or cells: HCT116
Outline: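 Bcl-xL protein level by capillary WES immunoassay in HCT116 lysates, as % of untreated after cofilin normalization. Compound exposure was 24 h at 10 and 100 nM and/or a 9-point series, in quadruplicate. Four-parameter fitting gave the DC50.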

[1] = system: EBC-1 lung cancer cell line; assay: EBC-1 cell proliferation, CellTiter-Glo assay; settings: Homo sapiens, 120 h; Ebc-1 cell viability, CTG assay, 5 days of treatment; read-out: CTG 5 day Ebc1 GI50
Outline: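 CellTiter-Glo read-out after 5-day compound treatment, normalised to untreated cells, with GI50 derived by four-parameter logistic regression. Ten concentrations spanning 0.508 nM–10 μM were added to 1000 EBC-1 cells per well the day after seeding. Assays required at least one cell doubling versus Day 0.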

HiBiT-tagged BCL-xL = target: T2, HiBiT-tagged BCL-xL (Homo sapiens, UniProt Q07817); assay: NCI-H1650 BCL-xL protein levels, Nano-Glo HiBiT Lytic Detection; settings: NCI-H1650 expressing HiBiT-tagged BCL-xL, overnight incubation, read-out: Bcl-xl HIBIT NCIH1650 DC50
T2 construct: expressed in transfected cells; host or cells: NCI-H1650 (ATCC No. CRL-5883), engineered HiBiT cell line
Outline: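 HiBiT luminescence after cell lysis with LgBiT/furimazine reagent reported BCL-xL levels, expressed relative to untreated wells and fitted with a four-parameter logistic equation. Engineered NCI-H1650 cells were exposed overnight at 37° C to compound at final 0.508 nM-10 μM (10 points, triplicate plates).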

T1 sequence (Q07817 whole entry): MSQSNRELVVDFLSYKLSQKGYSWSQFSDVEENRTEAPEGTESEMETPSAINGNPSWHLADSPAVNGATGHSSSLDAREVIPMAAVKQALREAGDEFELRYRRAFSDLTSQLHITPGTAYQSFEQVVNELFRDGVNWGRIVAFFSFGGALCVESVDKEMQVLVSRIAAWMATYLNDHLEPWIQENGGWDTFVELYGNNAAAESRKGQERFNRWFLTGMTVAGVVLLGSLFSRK
T2 sequence (Q07817 whole entry): as above

Row | SMILES | IC50 (MOLT-4 cells) | DC50 (Bcl-xL) | GI50 [1] | DC50 (HiBiT-tagged BCL-xL)
1 | Cc1ncsc1-c1ccc([C@H](C)NC(=O)[C@@H]2C[C@@H](O)CN2C(=O)[C@@H](NC(=O)CCOCCOCCOCCOCCN(C)CCOC23CC4(C)CC(C)(CC(Cn5ncc(-c6ccc(N7CCCc8c7nnc(Nc7nc9ccccc9s7)c8C)nc6C(=O)O)c5C)(C4)C2)C3)C(C)(C)C)cc1 [Example 89, 6-[3-(1,3-benzothiazol-2-ylamino)-4-methyl-6,7-dihydro-5H-pyrido[2,3-c]pyridazin-8-yl]-3-[1-[[3-[2-[2-[2-[2-[2-[3-[[(1S)-1-[(2S,4R)-4-hydroxy-2-[[(1S)-1-[4-(4-methylthiazol-5-yl)phenyl]ethyl]carbamoyl]pyrrolidine-1-carbonyl]-2,2-dimethyl-propyl]amino]-3-oxo-propoxy]ethoxy]ethoxy]ethoxy]ethyl-methyl-amino]ethoxy]-5,7-dimethyl-1-adamantyl]methyl]-5-methyl-pyrazol-4-yl]pyridine-2-carboxylic acid] | 57.6 nM | > 316 nM | 435 nM | 13 nM
2 | Cc1ncsc1-c1ccc(CNC(=O)[C@@H]2C[C@@H](O)CN2C(=O)[C@@H](NC(=O)C2(F)CC2)C(C)(C)SCCCCCCCCCCN(C)CCOC23CC4(C)CC(C)(CC(Cn5ncc(-c6ccc(N7CCCc8c7nnc(Nc7nc9ccccc9s7)c8C)nc6C(=O)O)c5C)(C4)C2)C3)cc1 [Example 94, 6-[3-(1,3-benzothiazol-2-ylamino)-4-methyl-6,7-dihydro-5H-pyrido[2,3-c]pyridazin-8-yl]-3-[1-[[3-[2-[10-[(2R)-2-[(1-fluorocyclopropanecarbonyl)amino]-3-[(2S,4R)-4-hydroxy-2-[[4-(4-methylthiazol-5-yl)phenyl]methylcarbamoyl]pyrrolidin-1-yl]-1,1-dimethyl-3-oxo-propyl]sulfanyldecyl-methyl-amino]ethoxy]-5,7-dimethyl-1-adamantyl]methyl]-5-methyl-pyrazol-4-yl]pyridine-2-carboxylic acid] | 14.4 nM | 1.06 nM | 112 nM | > 1670 nM
3 | Cc1ncsc1-c1ccc([C@H](C)NC(=O)[C@@H]2C[C@@H](O)CN2C(=O)[C@@H](NC(=O)CCOCCN(C)CCOC23CC4(C)CC(C)(CC(Cn5ncc(-c6ccc(N7CCCc8c7nnc(Nc7nc9ccccc9s7)c8C)nc6C(=O)O)c5C)(C4)C2)C3)C(C)(C)C)cc1 [Example 103, 6-[3-(1,3-benzothiazol-2-ylamino)-4-methyl-6,7-dihydro-5H-pyrido[2,3-c]pyridazin-8-yl]-3-[1-[[3-[2-[2-[3-[[(1S)-1-[(2S,4R)-4-hydroxy-2-[[(1S)-1-[4-(4-methylthiazol-5-yl)phenyl]ethyl]carbamoyl]pyrrolidine-1-carbonyl]-2,2-dimethyl-propyl]amino]-3-oxo-propoxy]ethyl-methyl-amino]ethoxy]-5,7-dimethyl-1-adamantyl]methyl]-5-methyl-pyrazol-4-yl]pyridine-2-carboxylic acid] | 63.4 nM | 13.6 nM | 378 nM | > 1670 nM
4 | Cc1ncsc1-c1ccc([C@H](C)NC(=O)[C@@H]2C[C@@H](O)CN2C(=O)[C@@H](NC(=O)COCCCCCCCCCCCN(C)CCOC23CC4(C)CC(C)(CC(Cn5ncc(-c6ccc(N7CCCc8c7nnc(Nc7nc9ccccc9s7)c8C)nc6C(=O)O)c5C)(C4)C2)C3)C(C)(C)C)cc1 [Example 110, 6-[3-(1,3-benzothiazol-2-ylamino)-4-methyl-6,7-dihydro-5H-pyrido[2,3-c]pyridazin-8-yl]-3-[1-[[3-[2-[11-[2-[[(1S)-1-[(2S,4R)-4-hydroxy-2-[[(1S)-1-[4-(4-methylthiazol-5-yl)phenyl]ethyl]carbamoyl]pyrrolidine-1-carbonyl]-2,2-dimethyl-propyl]amino]-2-oxo-ethoxy]undecyl-methyl-amino]ethoxy]-5,7-dimethyl-1-adamantyl]methyl]-5-methyl-pyrazol-4-yl]pyridine-2-carboxylic acid] | 23.9 nM | 11.4 nM | 379 nM | 2 nM

The next compounds have a lower IC50 (MOLT-4 cells) than those just listed; values first:

Row | IC50 (MOLT-4 cells) | DC50 (Bcl-xL) | GI50 [1] | DC50 (HiBiT-tagged BCL-xL) | SMILES
5 | 5.77 nM | 2.85 nM | 2660 nM | > 1670 nM | Cc1cc(N(CCCCN(C)C(=O)CCCCCCCCCOc2cccc3c2C(=O)N(C2CCC(=O)NC2=O)C3=O)c2ccc(-c3cnn(CC45CC6(C)CC(C)(C4)CC(OCCN(C)C)(C6)C5)c3C)c(C(=O)O)n2)nnc1Nc1nc2ccccc2s1 (stereo not shown) [Example 95, 6-[[6-(1,3-benzothiazol-2-ylamino)-5-methyl-pyridazin-3-yl]-[4-[10-[2-(2,6-dioxo-3-piperidyl)-1,3-dioxo-isoindolin-4-yl]oxydecanoyl-methyl-amino]butyl]amino]-3-[1-[[3-[2-(dimethylamino)ethoxy]-5,7-dimethyl-1-adamantyl]methyl]-5-methyl-pyrazol-4-yl]pyridine-2-carboxylic acid]
6 | 9.7 nM | > 316 nM | 81 nM | > 1670 nM | Cc1ncsc1-c1ccc([C@H](C)NC(=O)[C@@H]2C[C@@H](O)CN2C(=O)[C@@H](NC(=O)CCOCCCCCCN(C)CCOC23CC4(C)CC(C)(CC(Cn5ncc(-c6ccc(N7CCCc8c7nnc(Nc7nc9ccccc9s7)c8C)nc6C(=O)O)c5C)(C4)C2)C3)C(C)(C)C)cc1 [Example 108, 6-[3-(1,3-benzothiazol-2-ylamino)-4-methyl-6,7-dihydro-5H-pyrido[2,3-c]pyridazin-8-yl]-3-[1-[[3-[2-[6-[3-[[(1S)-1-[(2S,4R)-4-hydroxy-2-[[(1S)-1-[4-(4-methylthiazol-5-yl)phenyl]ethyl]carbamoyl]pyrrolidine-1-carbonyl]-2,2-dimethyl-propyl]amino]-3-oxo-propoxy]hexyl-methyl-amino]ethoxy]-5,7-dimethyl-1-adamantyl]methyl]-5-methyl-pyrazol-4-yl]pyridine-2-carboxylic acid]
7 | 7.84 nM | 0.155 nM | 98 nM | 1 nM | Cc1ncsc1-c1ccc([C@H](C)NC(=O)[C@@H]2C[C@@H](O)CN2C(=O)[C@@H](NC(=O)COCCCCCCCCCN(C)CCOC23CC4(C)CC(C)(CC(Cn5ncc(-c6ccc(N7CCCc8c7nnc(Nc7nc9ccccc9s7)c8C)nc6C(=O)O)c5C)(C4)C2)C3)C(C)(C)C)cc1 [Example 109, 6-[3-(1,3-benzothiazol-2-ylamino)-4-methyl-6,7-dihydro-5H-pyrido[2,3-c]pyridazin-8-yl]-3-[1-[[3-[2-[9-[2-[[(1S)-1-[(2S,4R)-4-hydroxy-2-[[(1S)-1-[4-(4-methylthiazol-5-yl)phenyl]ethyl]carbamoyl]pyrrolidine-1-carbonyl]-2,2-dimethyl-propyl]amino]-2-oxo-ethoxy]nonyl-methyl-amino]ethoxy]-5,7-dimethyl-1-adamantyl]methyl]-5-methyl-pyrazol-4-yl]pyridine-2-carboxylic acid]
